Measured values from the supplement of paper PMC8671470.

Experiments:
Settings in all cases: 72 h
Mono-Mac-6 = test system: Mono-Mac-6
In short: (§1)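 Seeded in RPMI 1640 at densities within the linear growth range, fifteen myeloid leukaemia cell lines were dispensed into 384-well plates with acoustically pre-printed compounds spanning five tenfold doses from 1 to 10,000 nM, in duplicate. The plates were kept for 72 h at 37 °C in 5% CO2 before luminescent ATP viability was measured and normalised to vehicle and to a positive control at 10 µM. Curves were fitted with a four-parameter log-logistic model. The IC50 was taken from those curves.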

KU-812 [1] = test system: KU-812
In short: as §1

HEL [2] = test system: HEL
In short: as §1

MOLM-13 [3] = test system: MOLM-13
In short: as §1

K-562 [4] = test system: K-562
In short: as §1

KG-1 [5] = test system: KG-1
In short: as §1

THP-1 [6] = test system: THP-1
In short: as §1

KCL-22 [7] = test system: KCL-22
In short: as §1

SHI-1 [8] = test system: SHI-1
In short: as §1

HL-60 [9] = test system: HL-60
In short: as §1

LAMA-84 = test system: LAMA-84
In short: as §1

MV4-11 [10] = test system: MV4-11
In short: as §1

BV-173 = test system: BV-173
In short: as §1

NOMO-1 [11] = test system: NOMO-1
In short: as §1

ML-2 [12] = test system: ML-2
In short: as §1

KU-812 [13] = assay: cell viability (% survival relative to DMSO control, bortezomib = 0%); higher = less cytotoxic
In short: (§2)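 Percent survival figures are means of duplicate wells. They were obtained by CellTiter-Glo luminescence after 10 AML and 5 CML cell lines spent 72 h at 37 °C with 5% CO2 in 384-well plates with compounds at 1, 10, 100, 1000 or 10000 nM. Vehicle was set to 100% and a 10 µM positive control to 0%.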

HEL [14] = assay: as above
In short: as §2

MOLM-13 [15] = assay: as above
In short: as §2

K-562 [16] = assay: as above
In short: as §2

KG-1 [17] = assay: as above
In short: as §2

THP-1 [18] = assay: as above
In short: as §2

KCL-22 [19] = assay: as above
In short: as §2

SHI-1 [20] = assay: as above
In short: as §2

HL-60 [21] = assay: as above
In short: as §2

MV4-11 [22] = assay: as above
In short: as §2

NOMO-1 [23] = assay: as above
In short: as §2

ML-2 [24] = assay: as above
In short: as §2

HL-60 [25] = assay: cell viability (% survival relative to DMSO control); higher = less cytotoxic
In short: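 In 384-well plates, the full library was rescreened in duplicate on HL-60 cells in RPMI 1640 with 10% FBS, at 1–10,000 nM in five tenfold concentrations, for 72 h at 37 °C, 5% CO2. Each run also held DMSO or 100 nM of one of three metabolic inhibitors. Viability was measured by CellTiter-Glo and normalised to DMSO wells and to wells with proteasome inhibitor, present at 10 μM. Any area under the curve comes from four-parameter log-logistic fitting with drc and PharmacoGx.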

OC[C@H]1NC[C@H](O)[C@@H](O)[C@@H]1O [Duvoglustat]
Settings	IC50 (cell viability) [nM]
BV-173	> 10000
HEL [2]	> 10000
HL-60 [9]	> 10000
K-562 [4]	> 10000
KCL-22 [7]	> 10000
KG-1 [5]	> 10000
KU-812 [1]	> 10000
LAMA-84	> 10000
ML-2 [12]	> 10000
MOLM-13 [3]	> 10000
MV4-11 [10]	> 10000
Mono-Mac-6	> 10000
NOMO-1 [11]	> 10000
SHI-1 [8]	> 10000
THP-1 [6]	> 10000

cell viability [%]
Settings	1 nM	10 nM	100 nM	1000 nM	10000 nM
HEL [14]	94.5	122	99.8	94.4	103
HL-60 [21]	90.1	180	113	81	125
K-562 [16]	90.3	94.7	100	88.2	105
KCL-22 [19]	90.5	120	107	87	104
KG-1 [17]	96.4	111	108	87.3	101
KU-812 [13]	84.9	99.8	92.5	94.5	103
ML-2 [24]	95.4	121	117	84.9	106
MOLM-13 [15]	79.3	127	104	83.3	102
MV4-11 [22]	93.3	108	92.8	92.6	113
NOMO-1 [23]	95.8	101	99.5	83.4	105
SHI-1 [20]	103	121	109	88	108
THP-1 [18]	96.6	92.3	109	84.6	101

cell viability [%], HL-60 [25]
Settings	0.001 µM	0.01 µM	0.1 µM	1 µM	10 µM
co-treatment: AZD3965 100 nM	96.9	99.7	96.3	96.5	94
co-treatment: DMSO vehicle	99.3	95.3	102	102	101.5
co-treatment: GSK2194069 100 nM	97.4	92.82	107	105	95.8
co-treatment: pictilisib 100 nM	97.9	108	108	109	106

CO[C@H]1C[C@@H]2CC[C@@H](C)[C@@](O)(O2)C(=O)C(=O)N2CCCC[C@H]2C(=O)O[C@H]([C@H](C)C[C@@H]2CC[C@@H](OCCO)[C@H](OC)C2)CC(=O)[C@H](C)/C=C(\C)[C@@H](O)[C@@H](OC)C(=O)[C@H](C)C[C@H](C)/C=C/C=C/C=C/1C [Everolimus]
Settings	IC50 (cell viability) [nM]
BV-173	4.11
HEL [2]	2.74
HL-60 [9]	3920
K-562 [4]	3.42
KCL-22 [7]	1.21
KG-1 [5]	< 1
KU-812 [1]	< 1
LAMA-84	782
ML-2 [12]	1530
MOLM-13 [3]	< 1
MV4-11 [10]	248
Mono-Mac-6	1.04
NOMO-1 [11]	22.5
SHI-1 [8]	1.15
THP-1 [6]	1.65

cell viability [%]
Settings	1 nM	10 nM	100 nM	1000 nM	10000 nM
HEL [14]	94.9	65.6	67	62.3	58.5
HL-60 [21]	91.4	75.6	86.3	54.9	43
K-562 [16]	71	50.4	48.8	44.5	30.6
KCL-22 [19]	66	44.6	36.2	33.8	24.6
KG-1 [17]	54.3	45.1	41	37.3	30.5
KU-812 [13]	58.5	44.9	44.8	39.4	36
ML-2 [24]	88.7	77.3	66.6	58.6	33.8
MOLM-13 [15]	49	38.1	48.3	29.7	34.6
MV4-11 [22]	62.1	64.6	61.8	53.6	22.6
NOMO-1 [23]	79.7	63.9	72.7	60.4	56.8
SHI-1 [20]	81.8	60.4	65.8	56.7	55.7
THP-1 [18]	83.8	67.5	66.9	59.8	58.9

cell viability [%], HL-60 [25]
Settings	0.001 µM	0.01 µM	0.1 µM	1 µM	10 µM
co-treatment: AZD3965 100 nM	100	95.63	97.03	93.2	83.2
co-treatment: DMSO vehicle	84.2	90.5	93.85	98.3	93.8
co-treatment: GSK2194069 100 nM	85.1	88.9	97.9	110.7	88.4
co-treatment: pictilisib 100 nM	78.7	88.7	87.9	89.2	72.1
